Test results from patent publication US20250049737A1, “Lauflumide and derivatives thereof for treating chronic fatigue syndrome and myalgic encephalomyelitis/chronic fatigue syndrome (ME/CFS)” (NLS Pharmaceutics AG, priority 2021, published 2025).

Tests used:
impulsivity = test: Impulsivity; type: in vivo; details: three doses tested; compared with modafinil
[1] = target: T1, NPY1 (h) (reverse agonist radioligand) (Homo sapiens, UniProt P25929); test: Radioligand binding panel (Eurofins CEREP), NPY1; details: % inhibition of control specific binding
T1 construct: Eurofins CEREP (contract study 100014859)
T1 sequence (P25929 1-384): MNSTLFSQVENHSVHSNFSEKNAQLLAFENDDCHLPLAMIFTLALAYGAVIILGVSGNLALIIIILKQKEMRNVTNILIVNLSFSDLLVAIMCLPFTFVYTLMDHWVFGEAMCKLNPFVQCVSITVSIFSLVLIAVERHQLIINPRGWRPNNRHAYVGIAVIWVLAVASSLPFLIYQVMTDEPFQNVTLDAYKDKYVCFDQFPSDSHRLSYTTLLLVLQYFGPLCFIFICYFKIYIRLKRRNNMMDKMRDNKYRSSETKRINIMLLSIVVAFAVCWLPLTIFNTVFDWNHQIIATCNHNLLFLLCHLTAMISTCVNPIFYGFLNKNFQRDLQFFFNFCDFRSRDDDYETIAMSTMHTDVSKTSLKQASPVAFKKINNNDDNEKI
Description: (§1) Lauflumide is tested at 10^-5 M, calculated as a % inhibition of control specific binding of a radioactively labeled ligand specific for each target.
(§2) This binding profile panel was broadly defined with roughly an equal number of selective, central and peripheral therapeutically relevant targets, including native animal tissues, radioligands and specific enzymes involved in cell cycle regulation in accordance with Eurofins Standard Operating Procedure (www.eurofins.fr).
(§3) For radioligand binding experiments, the half maximal inhibitory concentration (IC50) and the half maximal effective concentration (EC50) values were determined (via computer software) by nonlinear regression analysis of the competition curves using Hill equation curve fitting. The inhibition constants (Ki) were calculated using the Cheng-Prusoff equation (Ki=IC50/(1+(L/KD)), where L is the concentration of radioligand in the assay, and KD is the affinity of the radioligand for the receptor.
(§4) The results are expressed as a % control specific binding ([measured specific binding/control specific binding]×100) and as a % inhibition of control specific binding (100−[(measured specific binding/control specific binding)×100]) obtained in the presence of the test compounds. […]

[2] = target: T2, Histamine 2 (h) (H2) (agonist radioligand) (Homo sapiens, UniProt P25021); test: Radioligand binding panel (Eurofins CEREP), histamine H2; details: % inhibition of control specific binding
T2 construct: Eurofins CEREP (contract study 100014859)
Description: as §1, §2, §3, §4

[3] = target: T3, Relaxin-3 (RXFP3) (h) (agonist radioligand) (Homo sapiens, UniProt Q9NSD7); test: RXFP3 assay (Eurofins/leadHunter GPCR Biosensor cAMP Hunter); type: cell-based
T3 sequence (Q9NSD7 1-469): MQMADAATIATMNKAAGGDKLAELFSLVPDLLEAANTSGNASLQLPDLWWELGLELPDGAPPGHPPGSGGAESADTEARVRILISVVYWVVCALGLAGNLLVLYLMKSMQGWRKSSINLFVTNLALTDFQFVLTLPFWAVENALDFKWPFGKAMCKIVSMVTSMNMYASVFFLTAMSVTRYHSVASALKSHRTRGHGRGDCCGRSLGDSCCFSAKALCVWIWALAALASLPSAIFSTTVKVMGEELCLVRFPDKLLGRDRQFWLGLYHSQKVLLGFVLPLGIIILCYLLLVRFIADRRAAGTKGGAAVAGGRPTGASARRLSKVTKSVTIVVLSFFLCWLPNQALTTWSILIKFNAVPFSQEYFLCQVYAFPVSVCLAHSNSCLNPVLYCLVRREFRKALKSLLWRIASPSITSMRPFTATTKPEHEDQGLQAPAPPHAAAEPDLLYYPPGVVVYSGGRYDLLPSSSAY
Description: Lauflumide is found to weakly bind with RXFP3 receptors (Study US073-0006869-Q Eurofins/leadHunter 8/1/19; unpublished data) (Table 1).
In these assays' compounds were tested in agonist and antagonist mode with the GPCR Biosensor Assays and match to this design:
1. cAMP Hunter cell lines were expanded from freezer stocks according to standard procedures.
2. Cells were seeded in a total volume of 20 μL into white walled, 384-well microplates and incubated at 37° C. for the appropriate time prior to testing.
3. cAMP modulation was determined using the DiscoverX HitHunter cAMP XS+ assay.
1. For agonist determination, cells were incubated with sample in the presence of EC80 forskolin to induce response.
2. Media was aspirated from cells and replaced with 15 μL 2:1 HBSS/10 mM Hepes: cAMP XS+ Ab reagent.
3. […]
2. Microplates were read following signal generation with a PerkinElmer Envision™ instrument for chemiluminescent signal detection.
1. Compound activity was analyzed using CBIS data analysis suite (ChemInnovation, CA).
5. For Gi agonist mode assays, percentage activity is calculated using the following formula: […]
8. For Gi antagonist or negative allosteric mode assays, percentage inhibition is calculated using the following formula: % Inhibition=100%×(mean RLU of test sample−mean RLU of EC80 control)/(mean RLU of forskolin positive control−mean RLU of […]

T2 sequence (P25021 whole entry): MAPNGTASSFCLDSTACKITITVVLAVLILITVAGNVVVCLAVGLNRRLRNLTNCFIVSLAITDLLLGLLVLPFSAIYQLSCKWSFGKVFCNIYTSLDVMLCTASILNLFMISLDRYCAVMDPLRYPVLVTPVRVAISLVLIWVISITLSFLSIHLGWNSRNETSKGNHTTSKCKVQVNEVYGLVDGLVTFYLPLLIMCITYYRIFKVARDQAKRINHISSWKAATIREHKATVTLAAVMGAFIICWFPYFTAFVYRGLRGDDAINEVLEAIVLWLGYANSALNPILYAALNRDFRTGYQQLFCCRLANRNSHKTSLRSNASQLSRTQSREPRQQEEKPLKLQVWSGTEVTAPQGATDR

For `NC(=O)C[S@@+]([O-])C(c1ccc(F)cc1)c1ccc(F)cc1` [Lauflumide, 2-[(R)-((bis(4-fluorophenyl)methane)sulfinyl)]acetamide], the Impulsivity (impulsivity) was “improved impulsivity at the three doses tested with a better significant response than modafinil”, the “% Inhibition at 10^−5M” value [1] was 27.3% and the “% Inhibition at 10^−5M” value [2] was 46.6%. For the same compound, the “% Inhibition at 10^−5M” value [3] was 23.9%.
